21 compounds from patent US8759535B2, “Substituted fused imidazole derivatives, pharmaceutical compositions, and methods of use thereof” (High Point Pharmaceuticals, LLC, priority 2010, dated 2014) can be followed below.

The assay relates to HMOX1. The experiment in a line: HMOX1 Protein Assay (immunostaining of HO-1 in NHLF cells, GE InCell 1000). The format is cell-based. The following applies: Homo sapiens, fold change above DMSO treated cells, 16 h; for fold induction at 5 µM: 5 μM compound; for fold induction at 3 µM: 3 μM compound (asterisk). The procedure, abridged:
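NHLF cells seeded overnight in FGM-2, then exposed to compound or DMSO vehicle for 16 h, fixed, and immunostained for HO-1 with Hoechst nuclear counterstain; imaged on InCell 1000. Values are fold change over DMSO-treated cells, generally at 5 μM (0.8% DMSO), with asterisked entries at 3 μM.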

The fold induction is the signal under treatment as a multiple of the control signal.

The structures appear in SMILES notation.

The compound `Cn1c(Nc2nc3ccc(OC(F)(F)F)cc3s2)nc2ccc(-c3nc[nH]n3)cc21` [Example 197, [1-Methyl-6-(1H-1,2,4-triazol-3-yl)-1H-benzimidazol-2-yl]-(6-trifluoromethoxy-benzothiazol-2-yl)-amine] had a fold induction at 5 µM of 18.
Take `C[C@@H](NC(=O)c1ccc2c(c1)nc(Nc1nc3ccc(C(F)(F)F)cc3s1)n2C)C(=O)N(C)C` [Example 468, 1-Methyl-2-(6-trifluoromethyl-benzothiazol-2-ylamino)-1H-benzoimidazole-5-carboxylic acid ((R)-1-dimethylcarbamoyl-ethyl)-amide]: the fold induction at 3 µM was found to be 26.3.
In turn, `Cn1c(Nc2nc3ccc(OC(F)(F)F)cc3s2)nc2cc(C(=O)NC3CCN(S(C)(=O)=O)CC3)ccc21` [Example 90, 1-Methyl-2-(6-trifluoromethoxy-benzothiazol-2-ylamino)-1H-benzoimidazole-5-carboxylic acid (1-methanesulfonyl-piperidin-4-yl)-amide] yielded a fold induction at 5 µM of 8.1.
Turning to `CN(C)CCCNC(=O)c1ccc2c(c1)nc(Nc1nc3ccc(OC(F)(F)F)cc3s1)n2C` [Example 348, 1-Methyl-2-(6-trifluoromethoxy-benzothiazol-2-ylamino)-1H-benzoimidazole-5-carboxylic acid (3-dimethylamino-propyl)-amide], the fold induction at 3 µM came out at 22.
`Cn1c(Nc2nc3ccc(OC(F)(F)F)cc3s2)nc2cc(C(=O)NCC(=O)N3CCC(C(F)(F)F)CC3)ccc21` [Example 449, 1-Methyl-2-(6-trifluoromethoxy-benzothiazol-2-ylamino)-1H-benzoimidazole-5-carboxylic acid [2-oxo-2-(4-trifluoromethyl-piperidin-1-yl)-ethyl]-amide] gave a fold induction at 5 µM of 23.
The compound `COC(C)(C)CNC(=O)c1ccc2c(c1)nc(Nc1nc3ccc(Cl)cc3s1)n2C` [Example 207, 2-(6-Chloro-benzothiazol-2-ylamino)-1-methyl-1H-benzoimidazole-5-carboxylic acid (2-methoxy-2-methyl-propyl)-amide] returned a fold induction at 3 µM of 11.8.
As to `Cn1c(Nc2nc3ccc(OC(F)(F)F)cc3s2)nc2cc(C(=O)NCC(=O)OC(C)(C)C)ccc21` [Example 91, {[1-Methyl-2-(6-trifluoromethoxy-benzothiazol-2-ylamino)-1H-benzoimidazole-5-carbonyl]-amino}-acetic acid tert-butyl ester], the fold induction at 5 µM is 10.1.
As to `CCOCCNC(=O)c1ccc2c(c1)nc(Nc1nc3ccc(OC(F)(F)F)cc3s1)n2CCOC` [Example 169, 1-(2-Methoxy-ethyl)-2-(6-trifluoromethoxy-benzothiazol-2-ylamino)-1H-benzoimidazole-5-carboxylic acid (2-ethoxy-ethyl)-amide], the fold induction at 5 µM is 24.4.
Still for that read-out and setting: the value for `Cn1c(Nc2nc3ccc(OC(F)(F)F)cc3s2)nc2cc(C(=O)NCCOCC(F)F)ccc21` [Example 258, 1-Methyl-2-(6-trifluoromethoxy-benzothiazol-2-ylamino)-1H-benzoimidazole-5-carboxylic acid [2-(2,2-difluoro-ethoxy)-ethyl]-amide] was 24.6; that for `CCn1c(Nc2nc3ccc(Cl)cc3s2)nc2cc(C(=O)NC)ccc21` [Example 174, 2-(6-Chloro-benzothiazol-2-ylamino)-1-ethyl-1H-benzoimidazole-5-carboxylic acid methylamide] was 26.2.
As to `CN1CCN(CCCNC(=O)c2ccc3c(c2)nc(Nc2nc4ccc(OC(F)(F)F)cc4s2)n3C)CC1` [Example 355, 1-Methyl-2-(6-trifluoromethoxy-benzothiazol-2-ylamino)-1H-benzoimidazole-5-carboxylic acid [3-(4-methyl-piperazin-1-yl)-propyl]-amide], the fold induction at 3 µM worked out at 26.
In the case of `Cn1c(Nc2nc3ccc(C(F)(F)F)cc3s2)nc2cc(C(=O)NCCN3CCOCC3)ccc21` [Example 341, 1-Methyl-2-(6-trifluoromethyl-benzothiazol-2-ylamino)-1H-benzoimidazole-5-carboxylic acid (2-morpholin-4-yl-ethyl)-amide], the fold induction at 3 µM was found to be 32.8.
Compound `CCn1c(Nc2nc3ccc(OC(F)(F)F)cc3s2)nc2cc(S(=O)(=O)C(F)(F)F)ccc21` [Example 199, (1-Ethyl-5-trifluoromethanesulfonyl-1H-benzoimidazol-2-yl)-(6-trifluoromethoxy-benzothiazol-2-yl)-amine] returned a fold induction at 5 µM of 1.5.
On the same count and under the same terms, the value for `Cn1c(Nc2nc3ccc(OC(F)(F)F)cc3s2)nc2cc(C(=O)NCCN3CCOCC3)ccc21` [Example 43, 1-Methyl-2-(6-trifluoromethoxy-benzothiazol-2-ylamino)-1H-benzoimidazole-5-carboxylic acid (2-morpholin-4-yl-ethyl)-amide] was 29.6; that for `CCNC(=O)c1ccc2c(c1)nc(Nc1nc3ccc(Cl)cc3s1)n2CC` [Example 175, 2-(6-Chloro-benzothiazol-2-ylamino)-1-ethyl-1H-benzoimidazole-5-carboxylic acid ethylamide] was 28.7; that for `Cn1c(Nc2nc3ccc(OC(F)(F)F)cc3s2)nc2cc(C(=O)NCC(=O)N3CCCC(CO)C3)ccc21` (stereo not drawn) [Example 440, 1-Methyl-2-(6-trifluoromethoxy-benzothiazol-2-ylamino)-1H-benzoimidazole-5-carboxylic acid [2-(3-hydroxymethyl-piperidin-1-yl)-2-oxo-ethyl]-amide] was 28.2.
On to `C[C@@H](O)CNC(=O)CNC(=O)c1ccc2c(c1)nc(Nc1nc3ccc(Cl)cc3s1)n2C` [Example 382, 2-(6-Chloro-benzothiazol-2-ylamino)-1-methyl-1H-benzoimidazole-5-carboxylic acid [((R)-2-hydroxy-propylcarbamoyl)-methyl]-amide], for which the fold induction at 5 µM came out at 20.6.
On the same count and under the same terms, the value for `COCCn1c(Nc2nc3ccc(Cl)cc3s2)nc2cc(C(=O)NCCN3CCNC(=O)C3)ccc21` [Example 332, 2-(6-Chloro-benzothiazol-2-ylamino)-1-(2-methoxy-ethyl)-1H-benzoimidazole-5-carboxylic acid [2-(3-oxo-piperazin-1-yl)-ethyl]-amide] was 55.9.
For the compound `Cn1c(Nc2nc3ccc(Cl)cc3s2)nc2cc(C(=O)NC3CCN(CCC(=O)O)C3)ccc21` (stereo not drawn) [Example 299, 3-(3-{[2-(6-Chloro-benzothiazol-2-ylamino)-1-methyl-1H-benzoimidazole-5-carbonyl]-amino}-pyrrolidin-1-yl)-propionic acid], the fold induction at 5 µM is 16.7.
On the same count and under the same terms, the value for `COC(=O)CCNC(=O)c1ccc2c(c1)nc(Nc1nc3ccc(OC(F)(F)F)cc3s1)n2C` [Example 97, 3-{[1-Methyl-2-(6-trifluoromethoxy-benzothiazol-2-ylamino)-1H-benzoimidazole-5-carbonyl]-amino}-propionic acid methyl ester] was 19.2; that for `Cn1c(Nc2nc3ccc(OC(F)(F)F)cc3s2)nc2cc(C(=O)NCCOCCF)ccc21` [Example 47, 1-Methyl-2-(6-trifluoromethoxy-benzothiazol-2-ylamino)-1H-benzoimidazole-5-carboxylic acid [2-(2-fluoro-ethoxy)-ethyl]-amide] was 11.3.
